Experimental findings from US20080081039A1, “Inorganic Selenium For Treatment Of Cancer” (priority 2004, published 2008) are described below.

Values joined by “and” are separate entries in the source; they are usually repeats but may differ in a detail not shown here. Equal values may be shown once. Read-outs that look alike come from different tables or passages of the source.

One experiment has as its system Akt. Briefly: Activation of Akt by different selenium compounds in PC-3 cells, immunoblot. It counts as cell-based, human. Conditions: serum starved PC-3 cells. From the text: Signal intensities from the developed films were scanned and intensities of active Akt correlated to total Akt levels were plotted.
Experiment [1] deals with PC-3 cells. Particulars: 24-72 hours. The method, then: Analysis of PC-3 growth curves were achieved by allowing 2×10^5 PC-3 cells to attach overnight. […] Supernatants and cells were then harvested, combined and viable cells assessed by Trypan Blue exclusion assay. Experiments were performed in triplicate.
Experiment [2] deals with androgen sensitive LNCaP cells. Conditions: for androgen sensitive NS LNCaP cell proliferation: 5 μM, 9 days. The protocol:
Cells were harvested at 72 hours following addition of the compounds and cell counts of viable cells as assessed by Trypan Blue staining were determined.
Cells were harvested at the indicated periods following addition of the compounds and cell counts of viable cells as assessed by Trypan Blue staining were determined.
The parental androgen-sensitive LNCaP cell line was obtained from the American Type Culture Collection (Manassas, Va., USA) and routinely cultured in […] (Invitrogen) supplemented with 10% foetal calf serum and 1% antibiotic/antimycotic mixture (Invitrogen). Cells were maintained at 37° C. in 5% CO2. To select androgen independent LNCaP cells LNCaPs were cultured in […] (Invitrogen) in 5% Charcoal stripped serum (CSS) (Invitrogen) which has removed all detectable traces of testosterone, for 6-8 weeks and obtained LNCaP cell lines which were now able to freely proliferate in the absence of testosterone. These cells are referred to as CSS LNCaPs.
Between 5×10^4 (FIGS. 1-2) and 1×10^5 LNCaP, CSS LNCaP or Q293 cells were allowed to attach overnight. […] Supernatants and cells were then harvested, combined and viable cells assessed by Trypan Blue exclusion assay. Experiments were performed in triplicate.

The test system of experiment [3] is PC-3 cells. Nature of the experiment: MTT growth assay. It counts as cell-based, human. The method, then: MTT Growth Assays involved plating 1×10^3 PC-3 cells per well in a 96 well plate and allowing the cells to attach overnight. […] The controls for this experiment received an equal volume of LY294002 diluent (DMSO). MTT growth assays were then performed according to the manufacturer's protocol (Sigma).

The test system of experiment [4] is PC-3 cells. The protocol:
Cells were allowed to grow until the indicated time points, then harvested, washed in PBS and fixed in ice cold 70% ethanol for 15 minutes. Cells were washed with PBS and resuspended in PBS containing 40 μg/mL of propidum iodide (Sigma) and […] of RNase. DNA histograms were generated for each reading and the proportion of cells present in the G1 and G2/M peaks determined. Results were obtained for three independent experiments.

The test system of experiment [5] is prostate tumor PC-3 cells. The method, then: 1×10^6 prostate tumor PC-3 cells were injected into the prostate of nude mice. […] Paclitaxel at 10 mg/kg was administered intraperitoneally once per week in 10% Cremophor EL/25% ethanol/65% PBS solution to those animals receiving paclitaxel. 10 animals were used per group. After 5 weeks post injection, animals were sacrificed, the prostates removed, the appendages dissected off and the tumors weighed. The retroperitoneum was explored for lymphadenopathy and lymph nodes greater than 0.5 mm diameter excised. The tumors were then step sectioned at 50 micron steps and tumor volumes calculated from the digitized images using the standard volumetric formula […].

Experiment [6] has as its system PC-3 cells. Particulars: 5 weeks, vs controls. The protocol:
Animal experimentation involved the use of BALB/c nude mice. On day one of the experiment 6 week old BALB/c nude mice were anaesthetized with an intraperitoneal injection of ketamine 100 mg/kg and xylazine 20 mg/kg. Under magnification 1×10^6 PC-3 cells with viability greater than 95%, were injected into the dorsolateral prostate, essentially as described in Corcoran, N. M., Najdovska, M., and Costello, A. J. (2004), J. Urol., 171:907-910.
On day 3 of the experiment all mice were switched to the D19101 minimal selenium diet with an assayed selenium content of 0.07 ppm (Research Diets Inc., New Brunswick, N.J., USA). […] After 5 weeks of supplementation mice were culled and tumor-containing prostate glands were then weighed and measured with a Vernier calliper. The retroperitonium was then explored under magnification cephadally to the level of the renal veins and lymph nodes measuring greater than 0.5 mm identified.
The degree of apoptosis in tissue samples was determined using an in situ TUNEL Cell Death Detection Kit (Roche Applied Science) according to the manufacture's instructions. The number of brown staining cells at high power (×400) were counted in 10 randomly chosen fields in areas where necrosis was absent on H&E staining of adjacent sections.
The rate of tumor cell proliferation was determined by in vivo BrdU incorporation. Two hours prior to culling, the mice were injected with 50 mg/kg BrdU (Sigma) intraperitoneally. 5 μm sections were cut, fixed in absolute methanol at 4° C. for 10 minutes. Sections were rehydrated in PBS and incubated in 2 N HCl for 1 hour at 37° C. to denature the DNA. The acid was neutralized by immersing the slides in 0.1 M borate buffer (pH 8.5). Following 3×PBS washes the samples were incubated with a monoclonal antibody to bromodeoxyuridine (BrdU) (Roche Applied Science) at a concentration of 5 μg/mL diluted in 0.1% BSA in PBS for 1 hour at room temperature, then overnight at 4° C. Samples were washed 3× times in PBS and incubated for 1 hour with a biotinylated link immunoglobulin mixture (DAKO Corporation). […] 10 fields at high power (×400) were chosen at random and the number of brown staining cells counted.

Take `O=[Se](=O)(O)O` [sodium selenate]: in the experiment with Akt (125 μM, 6 hours), the “activation of Akt (phosphorylated Akt relative to total Akt)” value was “inhibits activation of Akt”. The “activation of Akt at high dose” value in the experiment with Akt (500 μM, 1 hour) was “inhibited activation of Akt”. In addition, the PC-3 cell number entry was “rate of increase in cell number was impeded” with PC-3 cells [1] (doses of 0.01 to 0.1 mM); “all increases in cell number were blocked” in the experiment on PC-3 cells [1] (doses of 0.25 and 0.5 mM). In addition, the results for the “androgen sensitive NS LNCaP cell proliferation” value in experiment [2] (absence of androgen (charcoal stripped serum)) and in experiment [2] (presence of androgen (normal serum)) were “synergizes with androgen ablation to markedly reduce” and “markedly reduces”, respectively. For the same compound, in experiment [2] (50 μM, 72 hours, presence or absence of androgen), the “parental LNCaP cell proliferation” value is listed as “synergizes with androgen ablation to reduce”. Further, the “PC-3 cell proliferation (MTT proliferative index)” value with PC-3 cells [3] (0.25 and 0.5 mM, 72 hour) is listed as “markedly reduced”. For the same compound, the “proliferative inhibition with added LY294002” value in the experiment with PC-3 cells [3] (high dose sodium selenate plus LY294002, 72 hours) is “not enhanced by LY294002”. In addition, the “PC-3 cell number (MTT)” value with PC-3 cells [3] (lowest dose 0.01 mM) is “slight, but reproducible boost in cell number”. Further, the “percentage of the cell population in G1” value with PC-3 cells [4] (0.25 and 0.5 mM, 24 hours, control 55%) is on record as 69-70%; with PC-3 cells [4] (48 hours, dose- and time-dependent) it was “increased”. Also, the “percentage of PC-3 cells at G2/M phase” value with PC-3 cells [4] (48 hours) is “decreased”. The “percentage of cells at G2/M phase” value with PC-3 cells [4] (increasing concentrations (0.25, 0.5 mM), 24 hours, control 28%) was 19% and 24%. Further, the prostate tumor weights result in experiment [5] (5 ppm selenium in drinking water and/or paclitaxel 10 mg/kg intraperitoneally once per week, 5 weeks, control received Cremophor/ethanol carrier) is “not reduced compared to the control”. Moreover, in experiment [5] (selenate alone, 5 ppm in drinking water), the “microvessel density in the tumors” value was “greater effect on reducing microvessel density in the tumors than on tumor volumes”. Moreover, in the experiment with PC-3 cells [6] (5 ppm in drinking water, lymph nodes greater than 0.5 mm), the “number of retroperitoneal lymph nodes” value is recorded as “significantly decreased”. In addition, the “BrdU incorporation in prostate tumors” value with PC-3 cells [6] (5 ppm in drinking water) is “significantly impaired”. Also, in the experiment with PC-3 cells [6] (5 ppm in drinking water), the “apoptosis (Tunel assay) in prostate tumors” value was “not significantly different”. For the same compound, in the experiment with PC-3 cells [6] (5 ppm in drinking water), the tumor volume difference result is reported as “just failed to reach significance”. In the experiment with PC-3 cells [6] (5 ppm selenium as sodium selenate in drinking water), the “primary tumor growth assessed by the prostate weight index” value is on record as “significantly inhibit”.
